In publication PMC6597546, “Identification of a potent benzoxaborole drug candidate for treating cryptosporidiosis” (Nature Communications, 2019):
Several values for one entry are separate records, joined by “and”; a condition that tells them apart may be missing. Equal values may be shown once. Read-outs that look alike come from different tables or passages of the source.

What was measured:
[1] = test system: C. parvum (University of Arizona Iowa isolate); type: in vivo, C57BL/6 IFN-γ−/− mice
Experimental: Interferon gamma (IFN-γ) knockout mice were used to model acute Cryptosporidium infection. All IFN-γ knockout mouse studies were performed in compliance with animal care guidelines and were approved by the Explora BioLabs (San Diego, CA) Institutional Animal Care and Use Committee. Four-week-old female C57BL/6 IFN-γ^−/− mice with normal flora were purchased from The Jackson laboratory and acclimated for 3 days prior to infection by oral gavage with ∼10^6 C. parvum Iowa isolate oocysts (Sterling Laboratory, University of Arizona) suspended in sterile distilled water. At the indicated times following infection, mice were treated with compound vehicle alone, clofazimine (positive control), or once daily AN7973 at the indicated doses. Fecal parasite shedding was measured by isolating oocysts using sucrose gradient centrifugation. Sheather’s sucrose solution was freshly prepared by dissolving 156.25 g sucrose and 2.5 mL phenol in 100 mL water. Two sucrose solutions were prepared: (A) specific gravity of 1.103 (33% Sheather’s and 0.1% Tween 80 in PBS) and (B) specific gravity of 1.064 (20% Sheather’s and 0.1% Tween 80 in PBS). In a 2 mL microfuge tube, a gradient was prepared by laying 0.75 mL of solution A, then carefully laying 0.75 mL of solution B, slowly as to prevent mixing of the two layers. Fecal pellets were removed from storage, and homogenized by vortexing and pipetting. 0.2 mL fecal homogenate was overlaid on top of gradient in each microfuge tube. Oocysts were floated from feces by centrifugation at 1000 × g for 20 min and collected with a pipet tip from the 1.064/1.103 specific gravity interface between solutions A and B. Oocysts were rinsed once in cold PBS, pelleted by centrifugation at 15,000 × g for 10 min, and resuspended in PBS. Isolated oocysts were then stained with a fluorescein isothiocyanate-conjugated mouse anti-Cryptosporidium antibody (Bio-Rad catalog# 2402-3007 F; 0.25 µg per sample) and quantified using a Guava EasyCyte flow cytometer and CytoSoft data acquisition software (version 5.3; Guava Technologies, Inc.). Oocysts per milliliter of sample were normalized to counts per milligram of feces.

[2] = test system: C. parvum (Bunch Grass Farms Iowa isolate); set-up: method as in PMID 29339392; settings: cited from earlier work

CC(C)/N=c1\cc2n(-c3ccc(Cl)cc3)c3ccccc3nc-2cc1Nc1ccc(Cl)cc1 [Clofazimine, clofazimine, reference compound]
fecal oocyst shedding, individual mice ([1]; 10 mg/kg QD from day 4, day p.i. 14): 15 (2×) and 18 and 16
fecal oocyst shedding, individual mice ([1]; 25 mg/kg QD from day 4, day p.i. 8): 10 and 8 (2×) and 9
efficacy against Cryptosporidium in the NSG mouse [2]: lacks efficacy
